Assay results reported in ChEMBL document CHEMBL1201862, “PubChem BioAssay data set” (2004).
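Cultured in 96-well plates, cells were exposed to test compound for 48 hours across five concentrations. Abbreviation: GI50, concentration required for 50% inhibition of growth.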 Activity calls are given as the source filed them. No stated cut-off is given here; in the data, active = GI50 up to about 1.1 µM and inactive = higher.

Tests used:
Test in all cases: inhibition of tumour cell growth, NCI panel, 48 h
[1] = tested on: HOP-18
[2] = tested on: SNB-78
[3] = tested on: DLD-1
[4] = tested on: XF498
[5] = tested on: RXF 631
[6] = tested on: T47D
[7] = tested on: MDA-MB-435
[8] = tested on: Hs-578T
[9] = tested on: MDA-MB-231

Row | Structure (SMILES) | GI50 [1] | GI50 [2] | GI50 [3] | GI50 [4] | GI50 [5] | GI50 [6] | GI50 [7] | GI50 [8] | GI50 [9]
1 | CCn1c(=O)nc2n(-c3ccccc3)c3ccccc3nc-2c1=O | 61.4 µM (inactive) | 49.8 µM (inactive) | 28.3 µM (inactive) | 4.83 µM (inactive) | – | – | – | – | –
2 | O=C1C=CC=C/C1=C1/SC(c2ccccc2)=C(O)N1c1ccccc1 | – | > 100 µM (inactive) | – | – | – | – | – | – | –
3 | CC(C)OP(=O)(OC(C)C)c1nn(-c2ccc([N+](=O)[O-])cc2)c(=N)s1 | – | – | > 100 µM (inactive) | 89.5 µM (inactive) | – | – | – | – | –
4 | CC(C)(C)OC(=O)N1C2CCCC23O[C@@H]1c1cc2c(cc1C3=O)OCO2 (some centres not stated) | – | > 100 µM (inactive) | 27.1 µM (inactive) | 26.6 µM (inactive) | 27.2 µM (inactive) | – | – | – | –
5 | Cc1ccc(NC(=S)NNC(=O)c2cc(-c3ccccc3)nc3ccccc23)cc1C | – | – | – | – | – | 0.853 µM (active) | 24 µM (inactive) | 36.1 µM (inactive) | 20.3 µM (inactive)
6 | CO[C@H]1C=C[C@@]23c4cc5c(cc4CO[C@]2(O)CN(C)[C@H]3C1)OCO5 | – | – | – | – | – | > 100 µM (inactive) | > 100 µM (inactive) | > 100 µM (inactive) | > 100 µM (inactive)
7 | C=CCNC(=O)N(CCC)CCCCC(NC(C)=O)C(=O)NCc1ccccc1 (configuration not stated) | 72.1 µM (inactive) | – | – | > 100 µM (inactive) | – | – | – | – | –
8 | O=C1CC(CC(OCc2ccccc2)C(COCc2ccccc2)OCc2ccccc2)CC(=O)N1 (configuration not stated) | – | – | – | – | – | 27.9 µM (inactive) | 29.6 µM (inactive) | 44.2 µM (inactive) | 50.2 µM (inactive)
9 | C/C(=C1\N=C(c2ccccc2)OC1=O)c1ccccc1 | – | – | – | – | – | > 100 µM (inactive) | > 100 µM (inactive) | > 100 µM (inactive) | –
10 | O=C1CN2C(Cl)(Cl)C2(c2ccccc2)c2cc(Cl)ccc2N1CC1CC1 (configuration not stated) | 23.8 µM (inactive) | – | 16.9 µM (inactive) | – | – | – | – | – | –
11 | CC(C)(C)NCC(O)c1ccc(O)c(CO)n1 (configuration not stated) | – | – | – | – | – | > 100 µM (inactive) | > 100 µM (inactive) | > 100 µM (inactive) | > 100 µM (inactive)
12 | O=C(NC1C/C(=N/O)c2c(Br)sc(Br)c21)C(F)(F)F (configuration not stated) | – | – | – | – | – | 20.7 µM (inactive) | 47.2 µM (inactive) | 11.2 µM (inactive) | 13.1 µM (inactive)
13 | CC1C(=O)N(c2ccccc2)NC12CCCc1ccccc12 (configuration not stated) | – | – | – | – | – | > 100 µM (inactive) | > 100 µM (inactive) | > 100 µM (inactive) | > 100 µM (inactive)
14 | COc1ccc(C(CC(=O)c2ccc(O)cc2)C(C(=O)c2ccc(O)cc2)C(c2ccc(OC)cc2)C2C(=O)NC(=S)NC2=O)cc1 (configuration not stated) | – | – | – | – | – | – | 25.5 µM (inactive) | 26.7 µM (inactive) | 20.7 µM (inactive)
15 | O=C(O)c1ccc(NS(=O)(=O)Cc2ccccc2)cc1 | – | – | – | – | – | > 100 µM (inactive) | > 100 µM (inactive) | > 100 µM (inactive) | > 100 µM (inactive)
16 | CC(C)(C)C(=O)OCC1C(=O)OCC1C(=O)N1Cc2cc3ccccc3nc2C1 (configuration not stated) | 2.61 µM (inactive) | 1.53 µM (inactive) | 1.55 µM (inactive) | – | – | 2.38 µM (inactive) | 3.9 µM (inactive) | 15.3 µM (inactive) | 4.62 µM (inactive)
17 | O=C(N/N=C/C=C/c1ccccc1)[C@H](O)[C@@H](O)C(=O)N/N=C/C=C/c1ccccc1 | – | > 100 µM (inactive) | > 100 µM (inactive) | – | – | – | – | – | –
18 | COC1OC(CS(=O)(=O)O)C(O)C(O)C1O (configuration not stated) | – | – | – | – | – | > 100 µM (inactive) | > 100 µM (inactive) | > 100 µM (inactive) | –

Row | Structure (SMILES) | GI50 [1] | GI50 [2] | GI50 [3] | GI50 [4] | GI50 [5] | GI50 [6] | GI50 [7] | GI50 [8] | GI50 [9]
19 | CN(C)c1ccc(/C=C2/SC(=S)NC2=O)cc1 | – | – | – | – | – | > 100 µM (inactive) | > 100 µM (inactive) | > 100 µM (inactive) | 90.8 µM (inactive)
20 | NC1CCCCC1 | < 0.0562 µM (active) | 292 µM (inactive) | 200 µM (inactive) | – | – | – | – | – | –
21 | COc1cc2ccc(CC(N)=O)cc2cc1OC | > 100 µM (inactive) | > 100 µM (inactive) | – | > 100 µM (inactive) | > 100 µM (inactive) | – | – | – | –
22 | Clc1ccc(-c2nnc(-c3nsc4ccccc34)o2)cc1 | – | 46.2 µM (inactive) | – | – | – | – | – | – | –
23 | CCC1(OC(=O)CN)C(=O)OCc2c1cc1n(c2=O)Cc2cc3ccccc3nc2-1 (configuration not stated) | 0.0975 µM (active) | 0.738 µM (active) | 0.25 µM (active) | 0.147 µM (active) | – | 0.012 µM (active) | 0.0564 µM (active) | 6.14 µM (inactive) | 0.38 µM (active)
24 | CCCS(=O)(=O)O | – | – | – | – | – | > 100 µM (inactive) | > 100 µM (inactive) | > 100 µM (inactive) | > 100 µM (inactive)
25 | COc1cc([C@@H]2c3cc4c(cc3[C@@H](c3c(O)cc(O)c5c3O[C@H](c3ccc(O)c(O)c3)[C@@H](O)C5)[C@H]3COC(=O)[C@H]23)OCO4)cc(OC)c1O | – | – | – | – | – | > 100 µM (inactive) | > 100 µM (inactive) | > 100 µM (inactive) | > 100 µM (inactive)
26 | CC12CCCCC1C(=O)C2(Cl)Cl (configuration not stated) | – | 4.44 µM (inactive) | 1.97 µM (inactive) | 2.07 µM (inactive) | 1.92 µM (inactive) | – | – | – | –
27 | CC(=O)[C@H]1CCC2[C@@H]3CC=C4C(O)C(OS(=O)(=O)O)CC[C@]4(C)C3CC[C@@]21C (some centres not stated) | > 100 µM (inactive) | > 100 µM (inactive) | > 100 µM (inactive) | – | – | – | – | – | –
28 | CCN1CCC(O)(/C=C/c2ccc(C)cc2)C(C(=O)/C=C/c2ccc(C)cc2)C1 (configuration not stated) | – | – | – | – | – | 2.82 µM (inactive) | 2.93 µM (inactive) | 1.86 µM (inactive) | 2.07 µM (inactive)
29 | O=C(O)c1cc(-c2ccc3cc4c(cc3c2)OCO4)nc2ccccc12 | – | – | – | – | – | 54.8 µM (inactive) | 85.3 µM (inactive) | 49.2 µM (inactive) | 31.4 µM (inactive)
30 | CC(=O)N/C(=C\c1ccc(Cc2nc3c([nH]2)C(=O)c2ccccc2C3=O)cc1)c1nc2c([nH]1)C(=O)c1ccccc1C2=O | – | – | > 100 µM (inactive) | – | – | – | – | – | –
31 | CC(SC(=S)N1CCOCC1)C(=O)Nc1nnc(-c2ccc(Cl)cc2)o1 (configuration not stated) | – | – | – | – | – | 51.3 µM (inactive) | 40.2 µM (inactive) | > 100 µM (inactive) | 51.5 µM (inactive)
32 | C=CC(=O)NC(O)(C(=O)OCC)C(F)(F)F (configuration not stated) | – | – | – | – | – | > 100 µM (inactive) | > 100 µM (inactive) | > 100 µM (inactive) | > 100 µM (inactive)
33 | COc1ccccc1C(=O)NCC1CCCN2CCCCC12 (configuration not stated) | – | – | – | – | – | > 100 µM (inactive) | > 100 µM (inactive) | > 100 µM (inactive) | > 100 µM (inactive)
34 | Nc1cc2c(nc3c4ccccc4c(N)cc3[n+]2-c2cccc3ccccc23)c2ccccc12.Nc1cc2c(nc3c4ccccc4ccc3[n+]2-c2cccc3ccccc23)c2ccccc12 | – | – | – | – | – | 0.687 µM (active) | 1.45 µM (inactive) | 1.17 µM (inactive) | 0.276 µM (active)
35 | CCC(=O)N/S(=N/S(=O)(=O)c1ccccc1)C(Cl)(Cl)Cl (configuration not stated) | – | – | – | – | – | > 100 µM (inactive) | > 100 µM (inactive) | > 100 µM (inactive) | > 100 µM (inactive)
36 | CCN(CC)C(=O)c1cc(OC(C)C)ccc1-c1c(C)cc(OC(C)C)c(OC)c1OC | – | – | 40.3 µM (inactive) | 25.8 µM (inactive) | – | – | – | – | –
